Several values for one entry are separate records, joined by “and”; a condition that tells them apart may be missing. Equal entries are not always repeated. Where two headings read alike, the source gives them in different places.
Columns and labels:
Human Melanoma LOX = conditions: Cage 2; IV; qd 1–6, BID 7; total 700 mg/kg
[1] = tested on: Mammary Adenocarcinoma 16/C; conditions: IV
Text: Pancreatic ductal adenocarcinoma-03, mammary adenocarcinoma-16/C, mammary adenocarcinoma-17/Adr, and human melanoma LOX were used in the studies. Tumors were maintained in the mouse strain of origin (C57B1/6 for Panc-03 and C3H for the mammary tumors). Balb/c SCID mice (B and T cell deficient) were used for tumor maintenance and chemotherapy trials involving the human melanoma LOX. Tumors were transplanted into the appropriate F1 hybrid (B6D2F1=C57B 1/6 female× DBA/2 male) or the strain of origin for the chemotherapy trials. Individual mouse body weights for each experiment were within 5 grams, and all mice were over 17 grams at the start of therapy. The mice were supplied food and water ad libitum.
Animals were pooled, implanted subcutaneously with 30 to 60 mg tumor fragments by a 12 gauge trocar on day 0, and again pooled before unselective distribution to the various treatment and control groups. For early stage treatment, chemotherapy was started within 1 to 3 days after tumor implantation while the number of cells was relatively small (10^7 to 10^8 cells). For upstaged or advanced staged trials, the tumors were allowed to grow for five or more days before treatment was started. Tumors were measured with a caliper twice weekly. […] Tumor weights are estimated from two-dimensional measurements:
Tumor weight (in mg)=(a×b^2)/2, where a and b are the tumor length and width in (mm), respectively.
a) Tumor growth delay (T−C value), where T is the median time (in days) required for the treatment group tumors to reach a predetermined size (e.g., 1,000 mg), and C is the median time (in days) for the control group tumors to reach the same size. Tumor-free survivors were are excluded from these calculations (cures are tabulated separately).
b) Calculation of tumor cell kill for subcutaneously (SC) growing tumors. […] The conversion of the T−C values to log10 cell kill is possible because the Td of tumors re-growing post treatment (Rx) approximates the Td values of the tumors in untreated control mice.
It should be noted that an activity rating of +++ to ++++ is needed to effect partial regression (PR) or complete regression (CR) of 100 to 300 mg size masses of most transplanted solid tumors of mice. Thus, an activity rating of + or ++ would not be scored as active by usual clinical criteria. A PR is a reduction in tumor mass to less than 50% of pretreatment size. A CR is a reduction in tumor mass to below palpable size (i.e., reduction to zero detectable mass).
The T/C value in percent is an indication of anti-tumor effectiveness: A T/C=0% means no tumor growth. A T/C=100% means no anti-tumor activity, i.e., the treated and control tumors grew equally. […] A T/C value<10% is considered to indicate highly significant anti-tumor activity, and is the level used by NCI to justify a clinical trial if toxicity, formulation, and certain other requirements are met (termed DN-2 level activity).
Compounds as their sodium salts were prepared in a 1% sodium bicarbonate solution, H2O or phosphate buffered saline (PBS), with pH adjusted to 7.0 to 7.5 with HCl, and administered intravenously (IV) or orally (PO), at injection volumes of 0.2 mL per injection.

[2] = tested on: Pancreatic Adenocarcinoma 03; experiment: Evaluation against early stage Pancreatic Adenocarcinoma 03 in BDF1 male mice (Table 1); assay type: in vivo, mouse; conditions: PO, QD3–6, 9–11, BID 7–8
[3] = tested on: Mammary Adenocarcinoma 16/C; conditions: Cage 2, IV, BID 1–5, total 600 mg/kg
Text: Table 7. […] The animal was then re-implanted with Mam16/C/71.

[4] = tested on: Pancreatic Ductal Adenocarcinoma 03; experiment: Evaluation against early stage Pancreatic Ductal Adenocarcinoma 03 in female BDF1 mice (Table 4); assay type: in vivo, mouse; conditions: Cage 14; IV; 48 mg/kg/inj QD 3–9; total 336 mg/kg
Text: The higher dose requirement for compound 14e may be a disadvantage over compound 11b (Cage 14).

[5] = tested on: Mammary Adenocarcinoma 17/ADR; experiment: Evaluation against early stage Mammary Adenocarcinoma 17/ADR, C3H/He females (Table 3); assay type: in vivo; conditions: PO
[6] = Cage 4, d1, 3–5, 7, 9, 11, 13, 15, total 1610 mg/kg
[7] = Cage 5, d1, 3–7, 9, total 665 mg/kg
[8] = Cage 5, 145 mg/kg/inj QD-1–3 and 7–9, total 870 mg/kg
[9] = Cage 6, 90 mg/kg/inj QD-1–3 and 7–9, total 540 mg/kg
[10] = Cage 7, 55.8 mg/kg/inj QD-1–3 and 7–9, total 334.8 mg/kg
[11] = Cage 8, 34.6 mg/kg/inj QD-1–3, 145 mg/kg/inj QD-7–9, total 538.8 mg/kg

## CC(Oc1ccc(Oc2cnc3ccc(Cl)cc3n2)cc1)C(=O)NCCS(=O)(=O)[O-].[Na+] [Compound 14f (R)]
Human Melanoma LOX
  Comments (activity rating): (+) (0.7–1.2)
  Drug Death (day of death): no drug deaths and 0/5
  Log Cell Kill: 0.8
  Median Tumor Burden in mg on d 9 (range): 651 mg
  T-C: 3.0 days
  T/C %: 47%
  Time to 1000 mg days (range): 11.0 days
  Tumor Free on d 18: 0/5
[1]; [6]
  Day of Wt. Loss Nadir: 14 days
  Drug Death (day of death): 0/5
  Log Cell Kill: 4.2
  Mean Body Wt. Loss in g/mouse: −0.8 g/mouse
  Median Tumor Burden in mg on day 7 (range): 0 mg
  Percent Body Weight Loss: −3.0%
  T-C: 14 days
  T/C %: 0%
  Time to 1000 mg in days (range): 20 days
  Tumor Free on d28: no cures and 0/5
  day of full body weight recovery: ≤ 16 days
[1]; [7]
  Day of Wt. Loss Nadir: 5 days
  Drug Death (day of death): 0/5
  Log Cell Kill: 1.8
  Mean Body Wt. Loss in g/mouse: −0.8 g/mouse
  Median Tumor Burden in mg on day 7 (range): 260 mg
  Percent Body Weight Loss: −2.9%
  T-C: 6 days
  T/C %: 14%
  Time to 1000 mg in days (range): 12 days
  Tumor Free on d28: 0/5

## CC(Oc1ccc(Oc2cnc3ccc(Cl)cc3n2)cc1)C(N)=O (centres unmarked) [Compound 14a]
[2]; Cage 5, total 1,320 mg/kg
  Day of Wt. Loss Nadir: 8 days
  Drug Deaths (days of death): 0/5
  Log Kill: 1.9
  Mean Body Wt. Loss in g/mouse: −0.8 g/mouse
  Median tumor burden in mg on day 14 (range): 126 mg
  Percent Body Wt. Loss: −3.6%
  T-C: 12 days
  T/C %: 7.3%
  Time to 1000 mg days (range): 23 days
  Tumor Free on day 21: 0/5
  toxicity observations: Toxicity was not reached
[2]; Cage 6, total 660 mg/kg
  Day of Wt. Loss Nadir: 5 days
  Drug Deaths (days of death): 0/5
  Log Kill: 0.7
  Mean Body Wt. Loss in g/mouse: −0.4 g/mouse
  Median tumor burden in mg on day 14 (range): 695 mg
  Percent Body Wt. Loss: −1.8%
  T-C: 4.5 days
  T/C %: 40%
  Time to 1000 mg days (range): 15.5 days
  Tumor Free on day 21: 0/5
[2]; Cage 7, total 330 mg/kg
  Day of Wt. Loss Nadir: 6 days
  Drug Deaths (days of death): no lethality and 0/5
  Log Kill: 0.3
  Median tumor burden in mg on day 14 (range): 1273 mg
  T-C: 2 days
  T/C %: 74%
  Time to 1000 mg days (range): 13 days
  Tumor Free on day 21: 0/5

## CC(Oc1ccc(Oc2ccc3ccc(Br)cc3n2)cc1)C(=O)NCCS(=O)(=O)[O-].[Na+] (centres unmarked) [Compound 14g, Sodium (2-(4-(7-bromo-2-quinolinyl)oxy)phenoxy)propionylamino ethanesulfonate]
[3]
  Day of Wt. Loss Nadir: 4 days
  Drug Death (day of death): 0/6
  Log Cell Kill: 0.9
  Mean Body Wt. Loss in g/mouse: −2.3 g/mouse
  Median Tumor Burden in mg on d 9 (range): 230 mg
  T-C: 3.5 days
  T/C %: 14%
  Time to 1,000 mg in days (range): 11.5 days
  day of full body weight recovery: ≤ 10 days
[3]; listed as 14g (Racemic)
  Percent Body Weight Loss: −11.0%
  Tumor Free on d 161: 1/6
[3]; listed as 14g Racemic
  Comments (activity rating): + (0.7–1.2)
  Percent Body Weight Loss: 11%
  Tumor Free on d 161: One animal remained tumor free
[3]; listed as 14g racemic
  Percent Body Weight Loss: −11%
  Tumor Free on d 161: ⅕

## CC(Oc1ccc(Oc2ccc3ccc(Cl)cc3n2)cc1)C(=O)O (centres unmarked) [Compound 11b]
[4]
  % Body Wt Loss at Nadir: −8.9%
  % T/C mass: 0%
  Activity Rating: +++ (2.0–2.8)
  Day of Nadir: 11 days
  Drug Deaths: 0/5
  Growth Delay: 17.5 days
  Log Kill: 2.6
  Median Tumor Mass on Day 14 (Range): 0
  Tumor Free day-37: 0/5
  day of full body weight recovery: ~15 days

## COc1c(Cl)ccc2ncc(Oc3ccc(OC(C)C(=O)N(C)C)cc3)nc12 (centres unmarked) [Compound 14c]
[5]; [8]
  % Body Wt Loss at Nadir: −5.8%
  % T/C mass: 20%
  Day of Nadir: 9 days
  Drug Deaths: 0/5
  Growth Delay: 5.5 days
  Log Kill: 1.5
  Median Tumor Mass on Day 9 (Range): 243
  Tumor Free day-21: 0/5
[5]; [9]
  % Body Wt Loss at Nadir: +1.4%
  % T/C mass: 31%
  Activity Rating: ++ (1.3–1.9)
  Day of Nadir: 9 days
  Drug Deaths: 0/5
  Growth Delay: 5.0 days
  Log Kill: 1.4
  Median Tumor Mass on Day 9 (Range): 369
  Tumor Free day-21: 0/5
[5]; [10]
  % Body Wt Loss at Nadir: +0.0%
  % T/C mass: 31%
  Activity Rating: + (0.7–1.2)
  Day of Nadir: 9 days
  Drug Deaths: 0/5
  Growth Delay: 3.5 days
  Log Kill: 1.0
  Median Tumor Mass on Day 9 (Range): 368
  Tumor Free day-21: 0/5
[5]; [11]
  % Body Wt Loss at Nadir: −1.4%
  % T/C mass: 55%
  Activity Rating: + (0.7–1.2)
  Day of Nadir: 11 days
  Drug Deaths: 0/5
  Growth Delay: 3.3 days
  Log Kill: 0.9
  Median Tumor Mass on Day 9 (Range): 660
  Tumor Free day-21: 0/5

Reference: patent US7109341B2, “Therapeutic amides” (Wayne State University, priority 2002, dated 2006)
